Where two headings read alike, the source gives them in different places.

Broadly, the IC50 is the concentration needed to halve the response being measured.

Experiment [1] deals with HeLa. Nature of the experiment: MTT assay, HeLa. The format is cell-based. Particulars: for IC50: Homo sapiens, MTT assay, HeLa cervix carcinoma, (±s) standard deviation; for Selectivity Index HeLa: IC50 for normal cell line (HDF)/IC50 for HeLa. On the technique in general: Formazan colour is commonly taken as a measure of viable cells.
Experiment [2] has as its system HeLa, KB, MCF-7, A-549 and HDF cell lines. Nature of the experiment: MTT assay, statements over several tested cell lines. The class given is cell-based.
Experiment [3] relates to A-549. Nature of the experiment: MTT assay, A-549. The class given is cell-based. To be noted: for IC50: Homo sapiens, A549, MTT assay, A-549 lung carcinoma, (±s) standard deviation; for Selectivity Index A-549: IC50 for normal cell line (HDF)/IC50 for A-549.
For experiment [4], the system named is HDF (normal fibroblast cell line). As to the kind of experiment: MTT assay, HDF. Particulars: MTT assay, HDF normal fibroblast cell line, (±s) standard deviation. The format is cell-based, human.
The subject of experiment [5] is KB. To be noted: most active derivatives published earlier; read-out: Cell Line, IC50 [ μM] KB; cited from earlier work.
The test system of experiment [6] is MCF-7. Particulars: most active derivatives published earlier; read-out: Cell Line, IC50 [ μM] MCF-7; cited from earlier work.
Experiment [7] concerns MCF-7. Nature of the experiment: MTT assay, MCF-7. The class given is cell-based. To be noted: for IC50: Homo sapiens, MCF7, MTT assay, MCF-7 breast carcinoma, (±s) standard deviation; for Selectivity Index MCF-7: IC50 for normal cell line (HDF)/IC50 for MCF-7.
For experiment [8], the system named is HeLa. Particulars: most active derivatives published earlier; read-out: Cell Line, IC50 [ μM] HeLa; cited from earlier work.
In experiment [9] the test system is KB. Nature of the experiment: MTT assay, KB. The format is cell-based. To be noted: for IC50: Homo sapiens, MTT assay, KB nasopharynx carcinoma, (±s) standard deviation; for Selectivity Index KB: IC50 for normal cell line (HDF)/IC50 for KB.
Experiment [10] has as its system U-87MG, MCF-7, and HeLa cancer cell lines. Nature of the experiment: Apoptosis assay, all cancer cell lines. The class given is cell-based. The text has this: The necrosis process induced by all the tested compounds was very small.
Setting [11] is: summary over the tested cell lines, read-out: IC50 values for the tested cell lines (range or summary).

For `CC1(C)CCC2(C(=O)N3CCOCC3)CCC3(C)C(=CCC4C5(C)CCC(=NO)C(C)(C)C5CCC43C)C2C1` (stereo not shown) [Compound 4], the concentration for half-maximal inhibition (IC50) was 8.72 µM in [1]; 7 to 8 µM in experiment [2] (setting [11]); 7.29 µM in experiment [3]; 13.9 µM in experiment [4] (Homo sapiens, Fibroblast); 1.74 µM in [5]; 1.6 µM in [6]. Also, the IC50 in [7] is 7.42 µM; in [8], 1.8 µM; in experiment [9], 8.72 µM. Further, the “Selectivity Index HeLa” value in experiment [1] came to 1.60. Moreover, the “Selectivity Index A-549” value in experiment [3] turned out to be 1.91. In [7], the “Selectivity Index MCF-7” value came to 1.88. In addition, the “Selectivity Index KB” value in experiment [9] is 1.60.
For `COC(=O)C12CCC(C)(C)CC1C1C(=NOC(=O)CCl)CC3C4(C)CCC(OC(C)=O)C(C)(C)C4CCC3(C)C1(C)CC2` (stereo not shown) [8b [22]], the IC50 in experiment [5] was 9.42 µM; in experiment [6], 7.26 µM; in experiment [8], 9.19 µM.
In the case of `COC(=O)[C@]12CCC(C)(C)CC1C1=CC(=O)C3[C@@]4(C)CC/C(=N\OC(=O)c5cc([N+](=O)[O-])cc([N+](=O)[O-])c5)C(C)(C)C4CC[C@@]3(C)[C@]1(C)CC2` (stereo partly shown) [Compound 6g, 3-(3′,5′-Dinitro)benzoxyimino-11-oxoolean-12-en-28-oic acid methyl ester], the IC50 in experiment [1] is 6.11 µM; in [2] (setting [11]), 5.39 to 8.98 µM; in [3], 5.39 µM; in [4] (Homo sapiens, Fibroblast) it was 7.27 µM; in experiment [7], 6.62 µM; in experiment [9] it was 8.98 µM. Further, the “Selectivity Index HeLa” value in experiment [1] was found to be 1.19. The “increase in induction of apoptosis” value turned out to be 1.7 fold in experiment [10] (0.1 µg/mL), 2.4 fold in [10] (1.0 µg/mL) and 2.9 fold in [10] (10 µg/mL). Moreover, in experiment [3], the “Selectivity Index A-549” value was found to be 1.34. Moreover, in experiment [7], the “Selectivity Index MCF-7” value worked out at 1.10. Also, in experiment [9], the “Selectivity Index KB” value turned out to be 0.81.
For `COC(=O)C12CCC(C)(C)CC1C1C(=NOC(=O)CBr)CC3C4(C)CCC(OC(C)=O)C(C)(C)C4CCC3(C)C1(C)CC2` (stereo not shown) [8c [22]], the IC50 was 4.9 µM in [5], 3.76 µM in experiment [6] and 4.41 µM in experiment [8].
Take `COC(=O)C12CCC(C)(C)CC1C1C(=NOC(=O)c3ccccc3[N+](=O)[O-])CC3C4(C)CCC(OC(C)=O)C(C)(C)C4CCC3(C)C1(C)CC2` (stereo not shown) [8e [22]]: the IC50 is greater than 10 µM in experiment [5], 9.28 µM in experiment [6] and 9.84 µM in experiment [8].
With `CC1(C)CC[C@]2(C(=O)N3CCOCC3)CC[C@]3(C)C(=CCC4[C@@]5(C)CC/C(=N\OC(=O)c6cc([N+](=O)[O-])cc([N+](=O)[O-])c6)C(C)(C)C5CC[C@]43C)C2C1` (stereo partly shown) [Compound 7g, 3-(3′,5′-Dinitro)benzoxyiminoolean-12-en-28-oic acid morpholide], the IC50 in [1] was 6.24 µM; in [2] (setting [11]) it was 4.19 to 8.98 µM; in experiment [3] it was 6.52 µM; in [4] (Homo sapiens, Fibroblast), 9.16 µM; in experiment [7] it was 7.27 µM; in experiment [9], 6.01 µM. Besides, the “Selectivity Index HeLa” value in [1] is listed as 1.47. The results for the “increase in induction of apoptosis” value in experiment [10] (0.1 µg/mL), in experiment [10] (1.0 µg/mL) and in [10] (10 µg/mL) were 2.3 fold, 2.6 fold and 3.8 fold, respectively. Also, in experiment [3], the “Selectivity Index A-549” value stood at 1.40. In experiment [7], the “Selectivity Index MCF-7” value amounted to 1.26. Further, the “Selectivity Index KB” value in experiment [9] stood at 1.52.
As to `COC(=O)C12CCC(C)(C)CC1C1=CC(=O)C3C4(C)CCC(=NO)C(C)(C)C4CCC3(C)C1(C)CC2` (stereo not shown) [Compound 3], the IC50 was 125 µM in experiment [1]; 63 µM in experiment [3]; 61 µM in experiment [4] (Homo sapiens, Fibroblast); 6.19 µM in [5]; greater than 10 µM in experiment [6]; 48.4 µM in experiment [7]. Further, the IC50 in experiment [8] is 5.03 µM; in experiment [9] it was 60.3 µM. The “Selectivity Index HeLa” value in [1] worked out at 0.49. Besides, the “Selectivity Index A-549” value in experiment [3] worked out at 0.97. In experiment [7], the “Selectivity Index MCF-7” value was determined as 1.26. In addition, the “Selectivity Index KB” value in [9] was 1.01.
As to `COC(=O)[C@]12CCC(C)(C)CC1C1=CCC3[C@@]4(C)CC/C(=N\OC(=O)c5ccccc5)C(C)(C)C4CC[C@@]3(C)[C@]1(C)CC2` (stereo partly shown) [Compound 5d, 3-Benzoxyiminoolean-12-en-28-oic acid methyl ester], the IC50 in experiment [1] is 84.9 µM; in experiment [2] (setting [11]) it was 73.9 to 113 µM; in experiment [3] it was 73.9 µM; in experiment [4] (Homo sapiens, Fibroblast), 113 µM; in [7], 83.3 µM; in experiment [9], 83.2 µM. Moreover, the “Selectivity Index HeLa” value in [1] came out at 1.33. Moreover, in experiment [3], the “Selectivity Index A-549” value is on record as 1.53. Further, the “Selectivity Index MCF-7” value in [7] was determined as 1.36. Also, in [9], the “Selectivity Index KB” value is given as 1.36.
Consider `CCC(=O)ON=C1C[C@@H]2[C@@]3(C)CC[C@H](OC(C)=O)C(C)(C)[C@@H]3CC[C@@]2(C)[C@]2(C)CC[C@@]3(C(=O)OC)CCC(C)(C)C[C@H]3[C@@H]12` [8d [22]], for which the half-inhibitory concentration (IC50) was 0.72 µM in [5], 2.13 µM in experiment [6] and 1.87 µM in experiment [8].
Consider `CCC(=O)O/N=C1\CC[C@@]2(C)C(CC[C@]3(C)C2CC=C2C4CC(C)(C)CC[C@]4(C(=O)N4CCOCC4)CC[C@]23C)C1(C)C` (stereo partly shown) [Compound 7c, 3-Propionoxyimino-olean-12-en-28-oic acid morpholide], for which the IC50 in experiment [1] is 143 µM; in experiment [2] (setting [11]) it was 140 to 180 µM; in experiment [3] it was 148 µM; in experiment [4] (Homo sapiens, Fibroblast), 179 µM; in [7], 153 µM; in experiment [9] it was 150 µM. The “Selectivity Index HeLa” value in experiment [1] is 1.27. The “Selectivity Index A-549” value in experiment [3] is 1.21. Moreover, the “Selectivity Index MCF-7” value in experiment [7] was determined as 1.17. Moreover, in experiment [9], the “Selectivity Index KB” value is 1.20.
`COC(=O)[C@]12CCC(C)(C)CC1C1=CCC3[C@@]4(C)CC/C(=N\OC(=O)CCl)C(C)(C)C4CC[C@@]3(C)[C@]1(C)CC2` (stereo partly shown) [Compound 5b, 3-Chloroacetoxyiminoolean-12-en-28-oic acid methyl ester]: the IC50 in experiment [1] amounted to 19.8 µM; in [3], 19.8 µM; in experiment [4] (Homo sapiens, Fibroblast), 37 µM; in experiment [7], 18 µM; in experiment [9], 18.4 µM. The “Selectivity Index HeLa” value in experiment [1] amounted to 1.87. Moreover, in experiment [2] (over the tested cell lines), the “times less active than mother OA (1)” value was 1.7–2.2 fold. In addition, the “Selectivity Index A-549” value in [3] was found to be 1.87. Besides, in experiment [7], the “Selectivity Index MCF-7” value was 2.05. In experiment [9], the “Selectivity Index KB” value turned out to be 2.01.
For the molecule `CCC(=O)O/N=C1\CC[C@@]2(C)C(CC[C@]3(C)C2C(=O)C=C2C4CC(C)(C)CC[C@]4(C(=O)OC)CC[C@]23C)C1(C)C` (stereo partly shown) [Compound 6c, 3-Propionoxyimino-11-oxoolean-12-en-28-oic acid methyl ester], the IC50 in experiment [1] was 24 µM; in experiment [2] (one approximate value or range for the four cancer cell lines, apart from HDF, read-out: IC50 for HeLa, KB, MCF-7, and A-549 cancer cell lines), roughly 24 µM; in experiment [3] it was 24.2 µM; in [4] (Homo sapiens, Fibroblast), roughly 50 µM; in experiment [4], 49 µM; in experiment [7], 23 µM. It took 24.8 µM to reach half-maximal inhibition in experiment [9] (IC50). In experiment [1], the “Selectivity Index HeLa” value turned out to be 2.04. For the same molecule, the “Selectivity Index A-549” value in [3] came out at 2.03. Also, in [7], the “Selectivity Index MCF-7” value came to 2.13. The “Selectivity Index KB” value in [9] is 1.97.
`COC(=O)[C@]12CCC(C)(C)CC1C1=CCC3[C@@]4(C)CC/C(=N\OC(=O)c5cccc([N+](=O)[O-])c5)C(C)(C)C4CC[C@@]3(C)[C@]1(C)CC2` (stereo partly shown) [Compound 5e]: the half-inhibitory concentration (IC50) in experiment [1] was 20.1 µM; in [2] (setting [11]) it was 20.1 to 38 µM; in experiment [3], 21.1 µM; in experiment [4] (Homo sapiens, Fibroblast), 38 µM; in [7], 21.8 µM; in experiment [9] it was 23.9 µM. In experiment [1], the “Selectivity Index HeLa” value amounted to 1.88. For the same molecule, in [3], the “Selectivity Index A-549” value was determined as 1.80. The “Selectivity Index MCF-7” value in [7] was 1.74. Moreover, the “Selectivity Index KB” value in experiment [9] was found to be 1.59.
For `CC1(C)CC[C@]2(C(=O)N3CCOCC3)CC[C@]3(C)C(=CCC4[C@@]5(C)CC/C(=N\OC(=O)CCl)C(C)(C)C5CC[C@]43C)C2C1` (stereo partly shown) [Compound 7b, 3-Chloroacetoxyiminoolean12-en-28-oic acid morpholide], the IC50 in [1] was 19.2 µM; in experiment [2] (setting [11]) it was 15 to 40 µM; in [3], 19.3 µM; in [4] (Homo sapiens, Fibroblast), 39.1 µM; in experiment [7] it was 15.6 µM; in experiment [9], 19.8 µM. Also, the “Selectivity Index HeLa” value in experiment [1] is recorded as 2.03. For the same molecule, the “Selectivity Index A-549” value in [3] is 2.02. Besides, in experiment [7], the “Selectivity Index MCF-7” value came to 2.50. The “Selectivity Index KB” value in experiment [9] worked out at 1.97.

Source of the values: paper PMC10819243 (Pharmaceutics, 2024).
